Results: ChEMBL document CHEMBL5678818, “Discovery of potent SOS1 inhibitors that block RAS activation via disruption of the RAS-SOS1 interaction” (Proc Natl Acad Sci U S A, 2019)

Key:
[1] = biological target: T1, Homeodomain-interacting protein kinase 4 (Homo sapiens) (UniProt Q8NE63); assay: Inhibition of HIPK4 (unknown origin) assessed as residual activity at 1000 nM by KINOMEscan analysis relative to control
T1 sequence (whole entry): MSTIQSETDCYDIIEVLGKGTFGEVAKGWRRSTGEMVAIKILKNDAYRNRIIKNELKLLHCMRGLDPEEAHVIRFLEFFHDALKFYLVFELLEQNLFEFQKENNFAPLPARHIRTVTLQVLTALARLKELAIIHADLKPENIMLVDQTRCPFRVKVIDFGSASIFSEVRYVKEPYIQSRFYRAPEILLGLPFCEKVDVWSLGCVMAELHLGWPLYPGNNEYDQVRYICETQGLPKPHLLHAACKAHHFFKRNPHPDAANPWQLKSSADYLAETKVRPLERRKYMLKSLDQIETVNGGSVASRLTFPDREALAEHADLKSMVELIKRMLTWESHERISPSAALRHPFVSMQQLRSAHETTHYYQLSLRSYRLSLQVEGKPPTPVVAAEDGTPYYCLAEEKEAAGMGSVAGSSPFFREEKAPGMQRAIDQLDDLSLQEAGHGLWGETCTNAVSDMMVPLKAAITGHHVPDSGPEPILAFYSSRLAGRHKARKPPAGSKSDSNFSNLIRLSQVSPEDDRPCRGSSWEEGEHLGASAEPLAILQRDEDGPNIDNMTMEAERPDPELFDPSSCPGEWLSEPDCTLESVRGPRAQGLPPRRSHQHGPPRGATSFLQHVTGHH

[2] = biological target: Serine/threonine-protein kinase SIK2 (Homo sapiens) (UniProt Q9H0K1); assay: Inhibition of SIK2 (unknown origin) assessed as residual activity at 1000 nM by KINOMEscan analysis relative to control
[3] = biological target: Serine/threonine-protein kinase N1 (Homo sapiens) (UniProt Q16512); assay: Inhibition of PKN1 (unknown origin) assessed as residual activity at 1000 nM by KINOMEscan analysis relative to control
[4] = biological target: Homeodomain-interacting protein kinase 1 (Homo sapiens) (UniProt Q86Z02); assay: Inhibition of HIPK1 (unknown origin) assessed as residual activity at 1000 nM by KINOMEscan analysis relative to control
[5] = biological target: T2, Serine/threonine-protein kinase RIO1 (Homo sapiens) (UniProt Q9BRS2); assay: Inhibition of RIOK1 (unknown origin) assessed as residual activity at 1000 nM by KINOMEscan analysis relative to control
T2 sequence (whole entry): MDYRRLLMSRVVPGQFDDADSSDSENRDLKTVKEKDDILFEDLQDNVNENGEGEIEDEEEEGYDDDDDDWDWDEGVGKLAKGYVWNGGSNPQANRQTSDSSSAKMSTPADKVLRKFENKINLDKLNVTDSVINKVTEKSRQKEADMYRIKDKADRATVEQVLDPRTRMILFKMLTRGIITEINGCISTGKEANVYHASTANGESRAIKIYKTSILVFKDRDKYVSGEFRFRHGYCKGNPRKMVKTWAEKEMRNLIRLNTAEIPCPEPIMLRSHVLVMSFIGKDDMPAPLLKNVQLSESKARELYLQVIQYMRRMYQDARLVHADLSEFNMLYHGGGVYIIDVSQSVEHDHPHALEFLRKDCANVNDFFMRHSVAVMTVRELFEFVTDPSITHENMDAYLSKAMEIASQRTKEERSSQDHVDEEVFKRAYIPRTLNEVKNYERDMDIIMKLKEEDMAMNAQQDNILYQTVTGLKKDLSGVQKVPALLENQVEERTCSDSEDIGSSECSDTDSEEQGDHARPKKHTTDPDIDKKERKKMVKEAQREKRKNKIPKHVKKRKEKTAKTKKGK

[6] = biological target: 5'-AMP-activated protein kinase catalytic subunit alpha-1 (Homo sapiens) (UniProt Q13131); assay: Inhibition of AMPK-alpha1 (unknown origin) assessed as residual activity at 1000 nM by KINOMEscan analysis relative to control
[7] = biological target: Phosphatidylinositol 4-phosphate 5-kinase type-1 alpha (Homo sapiens) (UniProt Q99755); assay: Inhibition of PIP5K1A (unknown origin) assessed as residual activity at 1000 nM by KINOMEscan analysis relative to control
[8] = biological target: Serine/threonine-protein kinase tousled-like 2 (Homo sapiens) (UniProt Q86UE8); assay: Inhibition of TLK2 (unknown origin) assessed as residual activity at 1000 nM by KINOMEscan analysis relative to control
[9] = biological target: Wee1-like protein kinase 2 (Homo sapiens) (UniProt P0C1S8); assay: Inhibition of WEE2 (unknown origin) assessed as residual activity at 1000 nM by KINOMEscan analysis relative to control
[10] = biological target: T3, Dual specificity mitogen-activated protein kinase kinase 7 (Homo sapiens) (UniProt O14733); assay: Inhibition of MKK7 (unknown origin) assessed as residual activity at 1000 nM by KINOMEscan analysis relative to control
T3 sequence (whole entry): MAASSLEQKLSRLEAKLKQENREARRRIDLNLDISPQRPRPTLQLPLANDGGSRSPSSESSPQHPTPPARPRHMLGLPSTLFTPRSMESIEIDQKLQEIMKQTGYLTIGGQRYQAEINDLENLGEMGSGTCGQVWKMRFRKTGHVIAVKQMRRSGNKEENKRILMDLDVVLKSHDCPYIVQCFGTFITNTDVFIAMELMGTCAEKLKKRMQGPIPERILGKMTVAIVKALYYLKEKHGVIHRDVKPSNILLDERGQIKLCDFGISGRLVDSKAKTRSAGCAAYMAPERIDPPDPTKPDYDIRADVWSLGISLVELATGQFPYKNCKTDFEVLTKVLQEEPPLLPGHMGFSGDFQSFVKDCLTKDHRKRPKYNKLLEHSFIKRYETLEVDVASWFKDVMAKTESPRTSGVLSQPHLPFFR

[11] = biological target: STE20-like serine/threonine-protein kinase (Homo sapiens) (UniProt Q9H2G2); assay: Inhibition of SLK (unknown origin) assessed as residual activity at 1000 nM by KINOMEscan analysis relative to control
[12] = system: Tyrosine-protein kinase ABL1 (Homo sapiens), P00519 [M351T]; assay: Inhibition of phosphorylated ABL1 M351T mutant (unknown origin) assessed as residual activity at 1000 nM by KINOMEscan analysis relative to control
[13] = biological target: High affinity nerve growth factor receptor (Homo sapiens) (UniProt P04629); assay: Inhibition of TRKA (unknown origin) assessed as residual activity at 1000 nM by KINOMEscan analysis relative to control
[14] = biological target: Dual specificity protein kinase CLK1 (Homo sapiens) (UniProt P49759); assay: Inhibition of CLK1 (unknown origin) assessed as residual activity at 1000 nM by KINOMEscan analysis relative to control
[15] = biological target: Cyclin-dependent kinase 16 (Homo sapiens) (UniProt Q00536); assay: Inhibition of PCTK1 (unknown origin) assessed as residual activity at 1000 nM by KINOMEscan analysis relative to control
[16] = biological target: Serine/threonine-protein kinase SBK1 (Homo sapiens) (UniProt Q52WX2); assay: Inhibition of SBK1 (unknown origin) assessed as residual activity at 1000 nM by KINOMEscan analysis relative to control

Chain of Dual specificity protein kinase CLK1 (Homo sapiens) (P49759 whole entry, looked up): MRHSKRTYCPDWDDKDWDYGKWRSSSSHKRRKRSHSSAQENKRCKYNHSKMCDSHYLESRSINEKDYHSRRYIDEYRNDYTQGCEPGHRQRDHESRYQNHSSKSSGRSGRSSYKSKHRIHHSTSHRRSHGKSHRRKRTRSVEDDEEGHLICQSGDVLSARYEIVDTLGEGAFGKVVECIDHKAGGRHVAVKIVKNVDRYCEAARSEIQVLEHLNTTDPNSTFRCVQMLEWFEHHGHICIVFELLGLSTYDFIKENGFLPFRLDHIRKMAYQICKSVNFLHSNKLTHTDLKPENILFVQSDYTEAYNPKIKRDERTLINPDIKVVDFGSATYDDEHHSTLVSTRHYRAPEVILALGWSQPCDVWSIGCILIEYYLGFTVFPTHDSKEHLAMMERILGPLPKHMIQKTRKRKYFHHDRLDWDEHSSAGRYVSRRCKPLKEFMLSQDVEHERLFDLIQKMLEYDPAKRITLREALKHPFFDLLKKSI
Chain of High affinity nerve growth factor receptor (Homo sapiens) (P04629 33-796 limits assumed): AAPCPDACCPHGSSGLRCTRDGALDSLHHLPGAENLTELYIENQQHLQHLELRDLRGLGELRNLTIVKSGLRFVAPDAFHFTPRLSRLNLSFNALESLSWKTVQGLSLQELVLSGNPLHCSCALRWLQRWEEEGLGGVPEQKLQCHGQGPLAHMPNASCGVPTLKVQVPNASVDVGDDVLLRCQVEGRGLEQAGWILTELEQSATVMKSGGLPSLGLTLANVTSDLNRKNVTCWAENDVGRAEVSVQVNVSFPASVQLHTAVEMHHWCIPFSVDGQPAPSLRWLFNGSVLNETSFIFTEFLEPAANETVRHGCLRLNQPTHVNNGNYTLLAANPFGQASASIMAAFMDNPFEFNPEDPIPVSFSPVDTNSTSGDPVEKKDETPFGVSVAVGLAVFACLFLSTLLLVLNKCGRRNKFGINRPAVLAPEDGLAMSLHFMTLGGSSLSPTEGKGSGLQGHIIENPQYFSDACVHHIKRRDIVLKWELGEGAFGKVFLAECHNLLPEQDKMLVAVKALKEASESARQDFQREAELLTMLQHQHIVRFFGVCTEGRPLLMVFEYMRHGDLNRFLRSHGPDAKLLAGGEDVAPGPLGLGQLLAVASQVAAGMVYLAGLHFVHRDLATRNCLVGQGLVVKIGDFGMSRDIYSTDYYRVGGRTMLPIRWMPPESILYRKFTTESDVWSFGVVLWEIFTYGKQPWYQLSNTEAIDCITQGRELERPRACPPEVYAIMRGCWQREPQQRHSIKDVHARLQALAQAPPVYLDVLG
Chain of Cyclin-dependent kinase 16 (Homo sapiens) (Q00536 whole entry): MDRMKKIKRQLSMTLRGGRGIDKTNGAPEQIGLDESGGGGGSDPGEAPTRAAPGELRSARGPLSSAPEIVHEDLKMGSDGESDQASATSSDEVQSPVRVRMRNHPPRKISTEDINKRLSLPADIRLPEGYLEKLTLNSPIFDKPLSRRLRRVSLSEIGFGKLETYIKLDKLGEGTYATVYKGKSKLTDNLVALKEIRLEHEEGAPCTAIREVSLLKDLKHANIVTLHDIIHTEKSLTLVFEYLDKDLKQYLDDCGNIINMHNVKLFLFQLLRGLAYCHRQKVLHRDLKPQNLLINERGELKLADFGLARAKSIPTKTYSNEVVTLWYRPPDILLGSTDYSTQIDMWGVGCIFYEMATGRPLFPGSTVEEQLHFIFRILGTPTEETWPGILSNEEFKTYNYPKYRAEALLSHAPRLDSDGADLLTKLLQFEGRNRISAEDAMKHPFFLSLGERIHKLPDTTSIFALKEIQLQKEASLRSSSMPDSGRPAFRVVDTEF
Chain of Homeodomain-interacting protein kinase 1 (Homo sapiens) (Q86Z02 whole entry, looked up): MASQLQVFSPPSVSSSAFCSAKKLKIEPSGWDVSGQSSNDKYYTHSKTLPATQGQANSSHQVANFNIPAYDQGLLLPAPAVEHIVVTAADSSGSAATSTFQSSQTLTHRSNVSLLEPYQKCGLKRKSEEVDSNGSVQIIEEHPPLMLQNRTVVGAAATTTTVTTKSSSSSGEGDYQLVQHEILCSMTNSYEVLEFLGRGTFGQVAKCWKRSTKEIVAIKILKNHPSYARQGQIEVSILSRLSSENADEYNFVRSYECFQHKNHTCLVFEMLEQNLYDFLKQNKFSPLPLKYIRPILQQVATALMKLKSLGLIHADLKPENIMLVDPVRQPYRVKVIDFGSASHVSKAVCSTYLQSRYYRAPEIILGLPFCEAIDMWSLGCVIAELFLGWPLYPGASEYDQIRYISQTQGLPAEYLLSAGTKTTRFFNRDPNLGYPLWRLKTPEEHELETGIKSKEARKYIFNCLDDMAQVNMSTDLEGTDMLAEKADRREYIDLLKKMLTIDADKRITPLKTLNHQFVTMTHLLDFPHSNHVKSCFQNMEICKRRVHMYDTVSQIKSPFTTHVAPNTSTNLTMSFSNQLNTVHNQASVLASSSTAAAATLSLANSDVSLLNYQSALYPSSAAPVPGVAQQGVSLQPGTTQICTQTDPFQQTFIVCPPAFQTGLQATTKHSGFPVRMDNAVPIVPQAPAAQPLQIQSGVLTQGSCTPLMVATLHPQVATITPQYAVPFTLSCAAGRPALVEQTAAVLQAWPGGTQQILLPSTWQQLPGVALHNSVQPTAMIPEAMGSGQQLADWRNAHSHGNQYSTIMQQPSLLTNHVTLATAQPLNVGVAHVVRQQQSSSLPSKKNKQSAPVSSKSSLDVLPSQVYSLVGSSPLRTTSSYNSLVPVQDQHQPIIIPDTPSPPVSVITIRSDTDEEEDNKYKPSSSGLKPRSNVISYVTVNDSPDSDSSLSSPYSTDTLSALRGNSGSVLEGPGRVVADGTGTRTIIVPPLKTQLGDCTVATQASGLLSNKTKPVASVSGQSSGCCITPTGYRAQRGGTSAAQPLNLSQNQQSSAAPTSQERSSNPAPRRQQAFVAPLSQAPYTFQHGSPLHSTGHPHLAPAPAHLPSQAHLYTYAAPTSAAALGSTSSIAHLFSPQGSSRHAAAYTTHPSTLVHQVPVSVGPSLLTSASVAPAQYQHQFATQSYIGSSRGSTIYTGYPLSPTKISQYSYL
Chain of Serine/threonine-protein kinase N1 (Homo sapiens) (Q16512 2-942 limits assumed): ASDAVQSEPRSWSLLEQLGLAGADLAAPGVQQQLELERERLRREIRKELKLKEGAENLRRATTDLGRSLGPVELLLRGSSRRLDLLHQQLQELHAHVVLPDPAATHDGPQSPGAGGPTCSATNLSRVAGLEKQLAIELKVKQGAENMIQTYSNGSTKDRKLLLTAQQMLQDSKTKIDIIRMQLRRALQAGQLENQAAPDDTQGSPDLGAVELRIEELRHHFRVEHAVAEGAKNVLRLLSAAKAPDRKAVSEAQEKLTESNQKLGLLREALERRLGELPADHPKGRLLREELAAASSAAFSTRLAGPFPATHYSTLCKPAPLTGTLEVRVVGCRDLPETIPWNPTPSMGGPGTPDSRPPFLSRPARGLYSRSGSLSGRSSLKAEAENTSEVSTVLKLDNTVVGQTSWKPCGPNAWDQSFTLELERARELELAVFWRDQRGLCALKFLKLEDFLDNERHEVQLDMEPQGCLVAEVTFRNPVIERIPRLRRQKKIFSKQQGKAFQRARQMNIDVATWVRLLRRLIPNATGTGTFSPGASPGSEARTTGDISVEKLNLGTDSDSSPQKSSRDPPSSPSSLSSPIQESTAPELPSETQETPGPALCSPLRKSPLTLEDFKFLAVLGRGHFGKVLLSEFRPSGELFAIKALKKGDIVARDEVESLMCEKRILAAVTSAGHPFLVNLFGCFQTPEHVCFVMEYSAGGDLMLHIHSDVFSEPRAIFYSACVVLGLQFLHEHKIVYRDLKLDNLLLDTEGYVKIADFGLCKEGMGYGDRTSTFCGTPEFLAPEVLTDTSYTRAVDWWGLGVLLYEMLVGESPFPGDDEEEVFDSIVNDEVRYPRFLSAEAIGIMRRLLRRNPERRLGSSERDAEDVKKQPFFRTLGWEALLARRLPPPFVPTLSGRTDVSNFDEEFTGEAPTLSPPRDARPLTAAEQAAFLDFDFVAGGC
Chain of Wee1-like protein kinase 2 (Homo sapiens) (P0C1S8 whole entry, looked up): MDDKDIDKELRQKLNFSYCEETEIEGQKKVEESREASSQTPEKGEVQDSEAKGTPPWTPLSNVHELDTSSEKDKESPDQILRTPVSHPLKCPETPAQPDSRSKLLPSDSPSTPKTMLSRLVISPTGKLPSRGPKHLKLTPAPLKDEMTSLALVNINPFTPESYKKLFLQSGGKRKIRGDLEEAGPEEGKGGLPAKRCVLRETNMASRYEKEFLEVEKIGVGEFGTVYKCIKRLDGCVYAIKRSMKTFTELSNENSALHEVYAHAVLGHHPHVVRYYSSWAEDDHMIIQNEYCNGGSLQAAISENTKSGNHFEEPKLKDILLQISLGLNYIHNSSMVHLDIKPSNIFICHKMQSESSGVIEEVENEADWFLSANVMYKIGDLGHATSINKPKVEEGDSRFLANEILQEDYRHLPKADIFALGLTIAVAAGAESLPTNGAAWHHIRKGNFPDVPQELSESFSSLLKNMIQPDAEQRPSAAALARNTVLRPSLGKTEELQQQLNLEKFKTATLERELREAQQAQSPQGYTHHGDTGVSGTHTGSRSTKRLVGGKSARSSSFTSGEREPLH
Chain of Phosphatidylinositol 4-phosphate 5-kinase type-1 alpha (Homo sapiens) (Q99755 whole entry): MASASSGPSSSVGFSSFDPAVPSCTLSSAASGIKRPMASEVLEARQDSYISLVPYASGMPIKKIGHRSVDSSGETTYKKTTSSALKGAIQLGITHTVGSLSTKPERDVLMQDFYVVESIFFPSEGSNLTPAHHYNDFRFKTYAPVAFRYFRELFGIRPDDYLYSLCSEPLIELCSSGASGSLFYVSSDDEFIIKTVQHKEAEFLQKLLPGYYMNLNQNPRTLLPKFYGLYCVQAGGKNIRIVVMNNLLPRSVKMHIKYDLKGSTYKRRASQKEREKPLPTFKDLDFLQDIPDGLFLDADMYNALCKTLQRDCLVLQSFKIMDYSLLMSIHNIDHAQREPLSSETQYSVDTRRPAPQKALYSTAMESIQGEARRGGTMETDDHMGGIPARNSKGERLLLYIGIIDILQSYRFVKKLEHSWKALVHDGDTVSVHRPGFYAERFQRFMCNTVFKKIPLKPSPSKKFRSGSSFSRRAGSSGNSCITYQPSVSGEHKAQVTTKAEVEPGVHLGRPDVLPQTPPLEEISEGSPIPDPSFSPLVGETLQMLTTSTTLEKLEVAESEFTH

COc1cc2nc(C)nc(N[C@H](C)c3cccc(-c4cn[nH]c4)c3)c2cc1OC
Activity [1]: 80% | Activity [2]: 89% | Activity [3]: 100% | Activity [4]: 67% | Activity [5]: 49% | Activity [6]: 82% | Activity [7]: 93% | Activity [8]: 83% | Activity [9]: 65% | Activity [10]: 98% | Activity [11]: 61% | Activity [12]: 97% | Activity [13]: 99% | Activity [14]: 70% | Activity [15]: 95% | Activity [16]: 85%

COc1cc2ncnc(N[C@H](C)c3cccc4ccccc34)c2cc1OC
Activity [1]: 100% | Activity [2]: 100% | Activity [3]: 97% | Activity [4]: 89% | Activity [5]: 82% | Activity [6]: 100% | Activity [7]: 90% | Activity [8]: 77% | Activity [9]: 100% | Activity [10]: 77% | Activity [11]: 84% | Activity [12]: 97% | Activity [13]: 97% | Activity [14]: 100% | Activity [15]: 88% | Activity [16]: 86%
